Measured values as given in paper PMC11129182, “Development of Inhibitors, Probes, and PROTAC Provides a Complete Toolbox to Study PARK7 in the Living Cell” (Journal of Medicinal Chemistry, 2024).
Like-named read-outs stand apart in the source and are kept apart here.

Biological target: T1, PARK7 (Homo sapiens, UniProt Q99497)
T1 sequence (Q99497 1-189): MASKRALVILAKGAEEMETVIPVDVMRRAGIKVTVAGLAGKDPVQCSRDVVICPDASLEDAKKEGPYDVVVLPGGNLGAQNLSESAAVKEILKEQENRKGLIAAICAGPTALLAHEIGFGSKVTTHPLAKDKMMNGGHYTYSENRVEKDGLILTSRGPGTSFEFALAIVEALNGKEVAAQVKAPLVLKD
Test: High-throughput screen of the crude compound library, PARK7 fluorescence polarization (FP) assay with FP reagent JYQ-107
Type: biochemical
Conditions: read-out: HTS FP assay %Inhibition (1.25 µM)

[1] = 1.25 µM, crude compound library
[2] = 1.25 µM, crude compound library, FP reagent JYQ-107

inhibition at 1.25 µM [1]	SMILES	also measured
67.7%	CN(Cc1ccccc1)C(=O)N1CCC(C(=O)N2CCc3nc(NC(=O)[C@@H]4CCN(C#N)C4)sc3C2)CC1 [compound 250]	
67.6%	N#CN1CC[C@@H](C(=O)Nc2nc3c(s2)CN(C(=O)c2ccc(COc4ccccc4Br)cc2)CC3)C1 [compound 123]	
71.3%	COc1ccc(N2CCN(C(C)C(=O)N3CCc4nc(NC(=O)[C@@H]5CCN(C#N)C5)sc4C3)CC2)cc1 (some centres unmarked) [compound 46]	
72.7%	CN(Cc1ccco1)c1ccccc1C(=O)N1CCc2nc(NC(=O)[C@@H]3CCN(C#N)C3)sc2C1 [compound 67]	
76.2%	N#CN1CC[C@@H](C(=O)Nc2nc3c(s2)CN(C(=O)c2ccc(OCc4cccnc4)cc2)CC3)C1 [compound 317]	
84.5%	N#CN1CC[C@@H](C(=O)Nc2nc3c(s2)CN(C(=O)c2ccc(N4CCCCCC4)nc2)CC3)C1 [compound 261]	
63.9%	N#CN1CC[C@@H](C(=O)Nc2nc3c(s2)CN(C(=O)c2cc(-c4ccncc4)on2)CC3)C1 [compound 210]	
83.5%	CN(CC(=O)N1CCCC(C(=O)N2CCc3nc(NC(=O)[C@@H]4CCN(C#N)C4)sc3C2)C1)c1ccc(Cl)cn1 (some centres unmarked) [compound 157]	
74.8%	CNS(=O)(=O)c1ccc(-c2ccc(Cl)c(Cl)c2)c(C(=O)N2CCc3nc(NC(=O)[C@@H]4CCN(C#N)C4)sc3C2)c1 [compound 305]	
69.7%	N#CN1CC[C@@H](C(=O)Nc2nc3c(s2)CN(C(=O)CCN(Cc2ccccc2)S(=O)(=O)c2c(Cl)cccc2Cl)CC3)C1 [compound 9]	
85.9%	N#CN1CC[C@@H](C(=O)Nc2nc3c(s2)CN(C(=O)c2cnc(COc4ccccc4)s2)CC3)C1 [compound 70]	
81%	N#CN1CC[C@@H](C(=O)Nc2nc3c(s2)CN(C(=O)C2Cc4ccccc42)CC3)C1 (some centres unmarked) [compound 179]	
71.3%	CN1CCN(C(=O)c2ccccc2C(=O)N2CCc3nc(NC(=O)[C@@H]4CCN(C#N)C4)sc3C2)CC1 [compound 129]	
84.8%	CC1CN(S(=O)(=O)c2ccc(C(=O)N3CCc4nc(NC(=O)[C@@H]5CCN(C#N)C5)sc4C3)cc2)CC(C)O1 (some centres unmarked) [compound 307]	
86.9%	Cn1nc(-c2cccnc2)cc1C(=O)N1CCc2nc(NC(=O)[C@@H]3CCN(C#N)C3)sc2C1 [compound 184]	
46.4%	Cc1n[nH]c(C)c1S(=O)(=O)N1CCC(C(=O)N2CCc3nc(NC(=O)[C@@H]4CCN(C#N)C4)sc3C2)CC1 [compound 120]	
74%	N#CN1CC[C@@H](C(=O)Nc2nc3c(s2)CN(C(=O)c2sc(N4CCCC4)nc2Cl)CC3)C1 [compound 227]	
69.2%	N#CN1CC[C@@H](C(=O)Nc2nc3c(s2)CN(C(=O)c2cccn2-c2c(Cl)cccc2Cl)CC3)C1 [compound 218]	
73.2%	N#CN1CC[C@@H](C(=O)Nc2nc3c(s2)CN(C(=O)c2cc(C4CC4)no2)CC3)C1 [compound 266]	
59.5%	N#CN1CC[C@@H](C(=O)Nc2nc3c(s2)CN(C(=O)C(c2ccccc2)n2cnnn2)CC3)C1 (some centres unmarked) [compound 141]	

Second part, the molecule before the results:

SMILES	inhibition at 1.25 µM [1]	also measured
N#CN1CC[C@@H](C(=O)Nc2nc3c(s2)CN(C(=O)[C@@H]2C[C@H]2c2ccco2)CC3)C1 [compound 32]	87%	
N#CN1CC[C@@H](C(=O)Nc2nc3c(s2)CN(C(=O)c2ccc(F)c(F)c2)CC3)C1 [compound 446]		inhibition at 1.25 µM [2]: 74.4%
Cc1nc(COc2ccccc2C(=O)N2CCc3nc(NC(=O)[C@@H]4CCN(C#N)C4)sc3C2)no1 [compound 223]	74%	
Cc1ccc(Br)c(C(=O)N2CCc3nc(NC(=O)[C@@H]4CCN(C#N)C4)sc3C2)c1 [compound 420]		inhibition at 1.25 µM [2]: 83.3%
N#CN1CC[C@@H](C(=O)Nc2nc3c(s2)CNCC3)C1 [amine]		inhibition at 1.25 µM: 39.9%
N#CN1CC[C@@H](C(=O)Nc2nc3c(s2)CN(C(=O)c2cnoc2-c2ccccc2C(F)(F)F)CC3)C1 [compound 185]	77.5%	
N#CN1CC[C@@H](C(=O)Nc2nc3c(s2)CN(C(=O)Cc2csc(C4CC4)n2)CC3)C1 [compound 373]		inhibition at 1.25 µM [2]: 81.4%
N#CN1CC[C@@H](C(=O)Nc2nc3c(s2)CN(C(=O)c2cc([N+](=O)[O-])ccc2Br)CC3)C1 [compound 441]		inhibition at 1.25 µM [2]: 81.4%
N#CN1CC[C@@H](C(=O)Nc2nc3c(s2)CN(C(=O)c2cc(OCc4ccccc4)ccn2)CC3)C1 [compound 66]	70.6%	
N#CN1CC[C@@H](C(=O)Nc2nc3c(s2)CN(C(=O)Cc2ccc(OCc4ccccn4)cc2)CC3)C1 [compound 353]		inhibition at 1.25 µM [2]: 73.2%
Cc1ccccc1-n1cc(C(=O)N2CCc3nc(NC(=O)[C@@H]4CCN(C#N)C4)sc3C2)cn1 [compound 347]		inhibition at 1.25 µM [2]: 87.5%
N#CN1CC[C@@H](C(=O)Nc2nc3c(s2)CN(C(=O)C2CCCN2C(=O)C2CC2)CC3)C1 (some centres unmarked) [compound 322]	67.1%	
N#CN1CC[C@@H](C(=O)Nc2nc3c(s2)CN(C(=O)Cc2coc(-c4cccs4)n2)CC3)C1 [compound 341]	87%	
N#CN1CC[C@@H](C(=O)Nc2nc3c(s2)CN(C(=O)C(Br)c2ccccc2)CC3)C1 (some centres unmarked) [compound 411]		inhibition at 1.25 µM [2]: 41.8%
N#CN1CC[C@@H](C(=O)Nc2nc3c(s2)CN(C(=O)Cc2csc(-c4cnccn4)n2)CC3)C1 [compound 8]	71.4%	
N#CN1CC[C@@H](C(=O)Nc2nc3c(s2)CN(C(=O)c2ccccc2I)CC3)C1 [compound 391]		inhibition at 1.25 µM [2]: 73.6%
N#CN1CC[C@@H](C(=O)Nc2nc3c(s2)CN(C(=O)c2ccc(CNC(=O)OCC4c5ccccc5-c5ccccc54)cc2)CC3)C1 [compound 448]		inhibition at 1.25 µM [2]: 63.9%
COc1cc(CC(=O)N2CCc3nc(NC(=O)[C@@H]4CCN(C#N)C4)sc3C2)ccc1O [compound 437]		inhibition at 1.25 µM [2]: 73.6%
N#CN1CC[C@@H](C(=O)Nc2nc3c(s2)CN(C(=O)C2COCCN2C(=O)OCc2ccccc2)CC3)C1 (some centres unmarked) [compound 181]	72.7%	
N#CN1CC[C@@H](C(=O)Nc2nc3c(s2)CN(C(=O)c2cncc(N4CCCC4)n2)CC3)C1 [compound 182]	81.9%	
N#CN1CC[C@@H](C(=O)Nc2nc3c(s2)CN(C(=O)CC2(Cn4cnnn4)CCCCC2)CC3)C1 [compound 233]	77.5%	
CN1CCN(C(=O)[C@@H]2[C@@H](C(=O)N3CCc4nc(NC(=O)[C@@H]5CCN(C#N)C5)sc4C3)C2(C)C)CC1 [compound 189]	66.8%	
N#CN1CC[C@@H](C(=O)Nc2nc3c(s2)CN(C(=O)c2ccnc(N4CCOCC4)n2)CC3)C1 [compound 180]	87.3%	

SMILES	inhibition at 1.25 µM [1]	also measured
C#CCCC(=O)N1CCc2nc(NC(=O)[C@@H]3CCN(C#N)C3)sc2C1 [compound 401]		inhibition at 1.25 µM [2]: 82.4%
Cn1cc(NS(=O)(=O)c2ccsc2C(=O)N2CCc3nc(NC(=O)[C@@H]4CCN(C#N)C4)sc3C2)cn1 [compound 53]	64.9%	
COCC(=O)N1CCc2nc(NC(=O)[C@@H]3CCN(C#N)C3)sc2C1 [compound 467]		inhibition at 1.25 µM [2]: 67.9%
N#CN1CC[C@@H](C(=O)Nc2nc3c(s2)CN(C(=O)c2cccc(Cn4cncn4)c2)CC3)C1 [compound 278]	80.6%	
Cc1oc(-c2ccco2)nc1CC(=O)N1CCc2nc(NC(=O)[C@@H]3CCN(C#N)C3)sc2C1 [compound 44]	71.6%	
N#CN1CC[C@@H](C(=O)Nc2nc3c(s2)CN(C(=O)c2cccc(B(O)O)c2)CC3)C1 [compound 444]		inhibition at 1.25 µM [2]: 68.5%
N#CN1CC[C@@H](C(=O)Nc2nc3c(s2)CN(C(=O)Cc2csc(-c4cccs4)n2)CC3)C1 [compound 105]	85.3%	
N#CN1CC[C@@H](C(=O)Nc2nc3c(s2)CN(C(=O)Cc2cccc(OCc4cccnc4)c2)CC3)C1 [compound 118]	83.7%	
N#CN1CC[C@@H](C(=O)Nc2nc3c(s2)CN(C(=O)c2cccc(C=O)c2)CC3)C1 [compound 433]		inhibition at 1.25 µM [2]: 81.4%
N#CN1CC[C@@H](C(=O)Nc2nc3c(s2)CN(C(=O)c2cccc4cc5ccccc5cc24)CC3)C1 [compound 456]		inhibition at 1.25 µM [2]: 80.6%
CN1C(=O)C[C@@H](C(=O)N2CCc3nc(NC(=O)[C@@H]4CCN(C#N)C4)sc3C2)[C@@H]1c1cccnc1 [compound 429]		inhibition at 1.25 µM [2]: 59.5%
Cc1csc(N2CCC(C(=O)N3CCc4nc(NC(=O)[C@@H]5CCN(C#N)C5)sc4C3)CC2)n1 [compound 190]	51.8%	
N#CN1CC[C@@H](C(=O)Nc2nc3c(s2)CN(C(=O)c2ccc(N4CCCC4)cc2F)CC3)C1 [compound 451]		inhibition at 1.25 µM [2]: 82.6%
Cn1ncc(C(=O)N2CCc3nc(NC(=O)[C@@H]4CCN(C#N)C4)sc3C2)c1-n1cccc1 [compound 33]	87%	
Cc1cncc(C(=O)N2CCc3nc(NC(=O)[C@@H]4CCN(C#N)C4)sc3C2)c1 [compound 397]		inhibition at 1.25 µM [2]: 68.5%
N#CN1CC[C@@H](C(=O)Nc2nc3c(s2)CN(C(=O)c2csc(-c4ccc(Br)s4)n2)CC3)C1 [compound 208]	86.4%	
N#CN1CC[C@@H](C(=O)Nc2nc3c(s2)CN(C(=O)c2cccn2Cc2ccccn2)CC3)C1 [compound 332]	73.2%	
Cc1nc(-c2ccco2)ccc1C(=O)N1CCc2nc(NC(=O)[C@@H]3CCN(C#N)C3)sc2C1 [compound 248]	84.8%	
Cc1cccc(C(=O)N2CCCCC2C(=O)N2CCc3nc(NC(=O)[C@@H]4CCN(C#N)C4)sc3C2)n1 (some centres unmarked) [compound 68]	66.5%	
CN1CCN(CC(=O)N2CCc3nc(NC(=O)[C@@H]4CCN(C#N)C4)sc3C2)CC1 [compound 463]		inhibition at 1.25 µM [2]: 67.3%
N#CN1CC[C@@H](C(=O)Nc2nc3c(s2)CN(C(=O)C2CCCN2C(=O)Cc2ccccc2)CC3)C1 (some centres unmarked) [compound 144]	78.4%	
N#CN1CC[C@@H](C(=O)Nc2nc3c(s2)CN(C(=O)C2CCCN(c4ncccn4)C2)CC3)C1 (some centres unmarked) [compound 329]	71.1%	
